Experiments:
[1] = target: T1, factor Xa in the presence of AT (Homo sapiens, UniProt P01008); assay: Determination of anti-factor Xa activity (IC50), Stachrom HP kit; type: biochemical; settings: factor Xa inhibition in the presence of AT
T1 construct: purchased Diagnostica Stago Stachrom HP kit
Description: In the description of exemplified compounds, “IC50” represents the anti-factor Xa activity.
Determination of Anti-Factor Xa Activity of Compounds (IC50)
The compounds were compared as to their ability of inhibiting factor Xa in the presence of AT under standard conditions. For each compound a curve was plotted representing the inhibition % vs. concentration. The concentration inhibiting 50% of the factor Xa activity (IC50) was determined. A commercially available system was used for this purpose: compoundStachrom HP kit (Diagnostica Stago). This assay was carried out on a STA Compact (Diagnostica Stago).

[2] = Pharmacokinetic study after intravenous administration (half-life of elimination); type: in vivo, female Wistar Han rats; settings: plasma concentration by anti-factor Xa bioassay
Description: Quantification of Compounds in Plasma
Rat plasmatic concentration of compounds (μg compound/mL plasma) was determined using a bioassay based on their anti-factor Xa activity (Stachrom HP kit, Diagnostica Stago as described above). This assay was carried out on a STA Compact (Diagnostica Stago). A specific calibration curve was preformed with each compound to be quantified in rat plasma.
Pharmacokinetic Study after Intravenous Administration (Half-Life of Elimination, T½)
The pharmacokinetics of the compounds of the present invention were investigated in female Wistar Han rats after intravenous administration.
Blood samples were taken at various time points and blood (9 volumes) was mixed with sodium citrate (1 volume) and cooled immediately on ice. The sample was subjected to a centrifugation at 3000×g for 10 minutes at low temperature (the plasma is typically stable for 24 h at temperature below 8° C.) and stored frozen at −20° C. Concentration of compound (per mL of plasma) was determined by their anti-factor Xa activity using factor Xa activity as described above.
For each compound, the half-life of elimination was calculated from the concentration versus time curve thus obtained.

[3] = cited from earlier work

T1 sequence (P01008 33-464): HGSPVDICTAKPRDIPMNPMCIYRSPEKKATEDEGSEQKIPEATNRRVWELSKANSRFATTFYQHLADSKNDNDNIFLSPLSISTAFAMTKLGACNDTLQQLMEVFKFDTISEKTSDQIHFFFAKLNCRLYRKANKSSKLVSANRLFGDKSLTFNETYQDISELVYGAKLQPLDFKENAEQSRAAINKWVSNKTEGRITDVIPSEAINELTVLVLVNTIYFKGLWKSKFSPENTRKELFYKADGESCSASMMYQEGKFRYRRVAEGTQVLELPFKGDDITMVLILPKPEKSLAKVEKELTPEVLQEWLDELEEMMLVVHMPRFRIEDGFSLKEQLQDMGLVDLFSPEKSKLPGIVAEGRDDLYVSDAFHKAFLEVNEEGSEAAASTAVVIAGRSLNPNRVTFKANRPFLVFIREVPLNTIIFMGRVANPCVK

IC50 [1] [nM] | half-life ([2]; female, Wistar Han, rat, read-out: T1/2 (Rat), half-life of elimination (converted)) [h] | T1/2 (Rat), half-life of elimination [2] [h] | SMILES | half-life in human [3] [h]
34 | 3.5 ± 0.3 | – | CCC1(C(=O)O)OC(OC2C(COS(=O)(=O)O)OC(OC3C(OC)C4OCC3(C(=O)O)OC4OC3C(COS(=O)(=O)O)OC(OC)C(OS(=O)(=O)O)C3OC)C(OS(=O)(=O)O)C2OS(=O)(=O)O)C(OC)C(OC)C1OC1OC(COS(=O)(=O)O)C(OC)C(OC)C1OC (centres unmarked) [Compound PA01] | –
108 | – | 4.8 ± 0.5 | CCCCCCOC1C(COS(=O)(=O)O)OC(OC2C(OC)C(OC)C(OC3C(COS(=O)(=O)O)OC(OC4C(OC)C5OCC4(C(=O)O)OC5OC4C(COS(=O)(=O)O)OC(OC)C(OS(=O)(=O)O)C4OC)C(OS(=O)(=O)O)C3OS(=O)(=O)O)OC2(CC)C(=O)O)C(N)C1OCCCCCC (centres unmarked) [Compound PA02] | –
– | – | – | CO[C@H]1O[C@H](COS(=O)(=O)O)[C@@H](O[C@@H]2O[C@@H](C(=O)O)[C@@H](O[C@H]3O[C@H](COS(=O)(=O)O)[C@@H](O[C@@H]4O[C@H](C(=O)O)[C@@H](O[C@H]5O[C@H](COS(=O)(=O)O)[C@@H](O)[C@H](O)[C@H]5NS(=O)(=O)O)[C@H](O)[C@H]4O)[C@H](OS(=O)(=O)O)[C@H]3NS(=O)(=O)O)[C@H](O)[C@H]2OS(=O)(=O)O)[C@H](O)[C@H]1NS(=O)(=O)O [Fondaparinux sodium] | 17

Source: patent US9556215B2, “Synthetic pentasaccharides having short half-life and high activity” (CARBOMIMETICS, priority 2011, dated 2017)
